Experimental data published in patent US20260242353A1, “HETEROARYL DERIVATIVES AS DDRs INHIBITORS” (CHIESI FARMACEUTICI S.P.A., priority 2022, published 2026).

Columns and labels:
DDR2 = biological target: T1, DDR2 (Homo sapiens, UniProt Q16832); assay: LanthaScreen Europium Kinase Binding assay, DDR2; settings: 5 nM DDR2, 10 nM Kinase Tracer 178, 1 h at rt; Ki from IC50 by Cheng-Prusoff; read-out: Ki DDR2
T1 construct: purchased Life Technologies
T1 sequence (Q16832 22-855): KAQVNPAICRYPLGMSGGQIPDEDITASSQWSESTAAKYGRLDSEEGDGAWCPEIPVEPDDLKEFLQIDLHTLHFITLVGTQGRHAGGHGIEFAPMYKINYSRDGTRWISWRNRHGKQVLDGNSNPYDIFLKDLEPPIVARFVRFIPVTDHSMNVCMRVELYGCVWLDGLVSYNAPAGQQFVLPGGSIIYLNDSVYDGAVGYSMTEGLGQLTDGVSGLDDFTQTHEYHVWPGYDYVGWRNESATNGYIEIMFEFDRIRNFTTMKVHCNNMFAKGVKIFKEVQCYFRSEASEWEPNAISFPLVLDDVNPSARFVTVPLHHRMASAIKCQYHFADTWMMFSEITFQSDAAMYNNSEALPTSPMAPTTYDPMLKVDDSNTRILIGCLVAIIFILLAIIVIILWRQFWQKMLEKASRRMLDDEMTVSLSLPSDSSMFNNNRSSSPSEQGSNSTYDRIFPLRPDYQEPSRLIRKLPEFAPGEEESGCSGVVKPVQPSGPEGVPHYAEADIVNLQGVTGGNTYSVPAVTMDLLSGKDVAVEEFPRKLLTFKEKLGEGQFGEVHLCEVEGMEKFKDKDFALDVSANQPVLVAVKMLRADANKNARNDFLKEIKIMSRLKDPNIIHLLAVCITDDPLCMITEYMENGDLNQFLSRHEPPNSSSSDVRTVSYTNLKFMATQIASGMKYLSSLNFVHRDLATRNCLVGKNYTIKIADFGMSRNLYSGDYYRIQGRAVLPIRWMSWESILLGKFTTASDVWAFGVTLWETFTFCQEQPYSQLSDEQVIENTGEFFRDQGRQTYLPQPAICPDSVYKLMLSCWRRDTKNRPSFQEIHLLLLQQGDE
Summary of the method: (§1)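 Compounds were incubated 1 h at rt with 5 nM DDR1 plus 20 nM Kinase Tracer 178, or 5 nM DDR2 plus 10 nM tracer, and 2 nM Eu anti-GST antibody in HEPES pH 7.5 buffer. Read-out was the TR-FRET 665/615 nm ratio. IC50 came from a 4-parameter fit and was converted to Ki by Cheng-Prusoff.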

DDR1 = biological target: T2, DDR1 (Homo sapiens, UniProt Q08345); assay: LanthaScreen Europium Kinase Binding assay, DDR1; settings: 5 nM DDR1, 20 nM Kinase Tracer 178, 1 h at rt; Ki from IC50 by Cheng-Prusoff; read-out: Ki DDR1
T2 construct: purchased Carna Biosciences
T2 sequence (Q08345 19-913): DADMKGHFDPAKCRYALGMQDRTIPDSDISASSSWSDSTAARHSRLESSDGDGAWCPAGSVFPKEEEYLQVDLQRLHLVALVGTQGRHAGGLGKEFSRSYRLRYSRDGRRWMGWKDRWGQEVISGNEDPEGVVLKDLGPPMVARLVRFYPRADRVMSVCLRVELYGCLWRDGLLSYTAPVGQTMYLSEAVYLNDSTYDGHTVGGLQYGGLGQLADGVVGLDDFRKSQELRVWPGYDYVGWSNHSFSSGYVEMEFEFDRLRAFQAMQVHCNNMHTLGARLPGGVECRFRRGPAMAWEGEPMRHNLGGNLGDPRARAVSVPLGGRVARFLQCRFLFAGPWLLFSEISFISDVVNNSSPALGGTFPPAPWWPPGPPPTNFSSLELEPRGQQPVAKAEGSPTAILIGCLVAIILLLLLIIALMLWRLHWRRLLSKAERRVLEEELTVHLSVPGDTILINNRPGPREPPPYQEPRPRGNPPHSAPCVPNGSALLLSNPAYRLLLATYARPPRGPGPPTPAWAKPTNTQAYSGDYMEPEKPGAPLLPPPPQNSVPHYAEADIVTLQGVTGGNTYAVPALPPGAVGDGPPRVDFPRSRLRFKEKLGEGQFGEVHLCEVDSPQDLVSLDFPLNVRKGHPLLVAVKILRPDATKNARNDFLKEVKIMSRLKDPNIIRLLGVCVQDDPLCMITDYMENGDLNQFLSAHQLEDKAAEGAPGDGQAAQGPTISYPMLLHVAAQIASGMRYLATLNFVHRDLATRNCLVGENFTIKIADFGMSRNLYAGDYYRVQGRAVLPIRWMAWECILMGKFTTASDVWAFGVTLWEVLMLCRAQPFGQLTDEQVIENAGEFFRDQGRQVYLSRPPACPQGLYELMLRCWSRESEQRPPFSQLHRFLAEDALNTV
Summary of the method: as §1

Structure (SMILES) | Ki (DDR2) | Ki (DDR1)
CNC(=O)c1cc(N2CC[C@@H](c3cc(C(=O)Nc4cncc(C(F)(F)F)c4)ccc3C)C2)ccn1 [Example 87, (S)-N-methyl-4-(3-(2-methyl-5-((5-(trifluoromethyl)pyridin-3-yl)carbamoyl)phenyl)pyrrolidin-1-yl)picolinamide] | 5 to 25 nM | < 5 nM
Cc1ccc(C(=O)Nc2cncc(C(F)(F)F)c2)cc1[C@@H]1CCN(c2cnn(C)c2)C1 [Example 88, (S)-4-methyl-3-(1-(1-methyl-1H-pyrazol-4-yl)pyrrolidin-3-yl)-N-(5-(trifluoromethyl)pyridin-3-yl)benzamide] | 5 to 25 nM | 5 to 25 nM
Cc1ccc(C(=O)Nc2cncc(C(F)(F)F)c2)cc1[C@@H]1CCN(c2cnn3ccc(C(=O)N4CCOCC4)cc23)C1 [Example 89, (S)-4-methyl-3-(1-(5-(morpholine-4-carbonyl)pyrazolo[1,5-a]pyridin-3-yl)pyrrolidin-3-yl)-N-(5-(trifluoromethyl)pyridin-3-yl)benzamide] | 5 to 25 nM | < 5 nM
Cc1ccc(C(=O)Nc2cc(OC(F)F)ccn2)cc1[C@@H]1CCN(c2cnn3cccnc23)C1 [Example 91, N-[4-(difluoromethoxy)-2-pyridyl]-4-methyl-3-[(3S)-1-pyrazolo[1,5-a]pyrimidin-3-ylpyrrolidin-3-yl]benzamide] | < 5 nM | < 5 nM
Cc1ccc(C(=O)Nc2cc(OC(F)F)ccn2)cc1[C@@H]1CCN(c2cnccn2)C1 [Example 92, N-[4-(difluoromethoxy)-2-pyridyl]-4-methyl-3-[(3S)-1-pyrazin-2-ylpyrrolidin-3-yl]benzamide] | 5 to 25 nM | < 5 nM
Cc1ccc(C(=O)Nc2cc(OC(F)F)ccn2)cc1[C@@H]1CCN(c2cnccc2C#N)C1 [Example 93, 3-[(3S)-1-(4-cyano-3-pyridyl)pyrrolidin-3-yl]-N-[4-(difluoromethoxy)-2-pyridyl]-4-methyl-benzamide] | < 5 nM | < 5 nM
Cc1ccc(C(=O)Nc2cc(OC(F)F)ccn2)cc1[C@@H]1CCN(c2cncc(C#N)n2)C1 [Example 94, (S)-3-(1-(6-cyanopyrazin-2-yl)pyrrolidin-3-yl)-N-(4-(difluoromethoxy)pyridin-2-yl)-4-methyl-benzamide] | 5 to 25 nM | < 5 nM
CCc1cc(NC(=O)c2ccc(C)c([C@@H]3CCN(c4cnn5cccnc45)C3)c2)no1 [Example 95, (S)-N-(5-ethylisoxazol-3-yl)-4-methyl-3-(1-(pyrazolo[1,5-a]pyrimidin-3-yl)pyrrolidin-3-yl)benzamide] | < 5 nM | < 5 nM
CCc1cc(NC(=O)c2ccc(C)c([C@@H]3CCN(c4cnn5ccncc45)C3)c2)no1 [Example 96, (S)-N-(5-ethylisoxazol-3-yl)-4-methyl-3-(1-(pyrazolo[1,5-a]pyrazin-3-yl)pyrrolidin-3-yl)benzamide] | < 5 nM | < 5 nM
COc1cnc2c(N3CC[C@@H](c4cc(C(=O)Nc5cncc(C(F)(F)F)c5)ccc4C)C3)cnn2c1 [Example 97, (S)-3-(1-(6-methoxypyrazolo[1,5-a]pyrimidin-3-yl)pyrrolidin-3-yl)-4-methyl-N-(5-(trifluoromethyl)pyridin-3-yl)benzamide] | 5 to 25 nM | < 5 nM
Cc1ccc(C(=O)Nc2cncc(OC(F)(F)F)c2)cc1[C@@H]1CCN(c2cnn3ccncc23)C1 [Example 98, (S)-4-methyl-3-(1-(pyrazolo[1,5-a]pyrazin-3-yl)pyrrolidin-3-yl)-N-(5-(trifluoromethoxy)pyridin-3-yl)benzamide] | < 5 nM | < 5 nM
CNc1ncc(N2CC[C@@H](c3cc(C(=O)Nc4cncc(C(F)(F)F)c4)ccc3C)C2)cn1 [Example 99, (S)-4-methyl-3-(1-(2-(methylamino)pyrimidin-5-yl)pyrrolidin-3-yl)-N-(5-(trifluoromethyl)pyridin-3-yl)benzamide] | 5 to 25 nM | < 5 nM
Cc1ccc(C(=O)Nc2cncc(C(F)(F)F)c2)cc1[C@@H]1CCN(c2cn[nH]c2)C1 [Example 100, (S)-3-(1-(1H-pyrazol-4-yl)pyrrolidin-3-yl)-4-methyl-N-(5-(trifluoromethyl)pyridin-3-yl)benzamide] | 5 to 25 nM | < 5 nM
Cc1ccc(C(=O)Nc2cncc(C(F)(F)F)c2)cc1[C@@H]1CCN(c2cnc3[nH]nc(CN(C)C)c3c2)C1 [Example 101, (S)-3-(1-(3-((dimethylamino)methyl)-1H-pyrazolo[3,4-b]pyridin-5-yl)pyrrolidin-3-yl)-4-methyl-N-(5-(trifluoromethyl)pyridin-3-yl)benzamide] | 5 to 25 nM | < 5 nM
Cc1ccc(C(=O)Nc2cncc(C(F)(F)F)c2)cc1[C@@H]1CCN(c2cnc3[nH]cc(C(=O)NC4COC4)c3c2)C1 [Example 102, (S)-5-(3-(2-methyl-5-((5-(trifluoromethyl)pyridin-3-yl)carbamoyl)phenyl)pyrrolidin-1-yl)-N-(oxetan-3-yl)-1H-pyrrolo[2,3-b]pyridine-3-carboxamide] | 5 to 25 nM | < 5 nM
Cc1ccc(C(=O)Nc2cncc(C(F)(F)F)c2)cc1[C@@H]1CCN(c2cncc(OCCO)c2)C1 [Example 103, (S)-3-(1-(5-(2-hydroxyethoxy)pyridin-3-yl)pyrrolidin-3-yl)-4-methyl-N-(5-(trifluoromethyl)pyridin-3-yl)benzamide] | < 5 nM | < 5 nM
Cc1ccc(C(=O)Nc2cncc(C(F)(F)F)c2)cc1[C@@H]1CCN(c2ncnc3sccc23)C1 [Example 106, (S)-4-methyl-3-(1-(thieno[2,3-d]pyrimidin-4-yl)pyrrolidin-3-yl)-N-(5-(trifluoromethyl)pyridin-3-yl)benzamide] | 5 to 25 nM | 5 to 25 nM
Cc1ccc(C(=O)Nc2cncc(C(F)(F)F)c2)cc1[C@@H]1CCN(c2ncnc3ccsc23)C1 [Example 107, (S)-4-methyl-3-(1-(thieno[3,2-d]pyrimidin-4-yl)pyrrolidin-3-yl)-N-(5-(trifluoromethyl)pyridin-3-yl)benzamide] | < 5 nM | < 5 nM
CNC(=O)c1cc2ncnc(N3CC[C@@H](c4cc(C(=O)Nc5cncc(C(F)(F)F)c5)ccc4C)C3)c2s1 [Example 108, (S)-N-methyl-4-(3-(2-methyl-5-((5-(trifluoromethyl)pyridin-3-yl)carbamoyl)phenyl)pyrrolidin-1-yl)thieno[3,2-d]pyrimidine-6-carboxamide] | < 5 nM | < 5 nM
COc1ccc(C(=O)Nc2cncc(C(F)(F)F)c2)cc1C1CCN(c2cnn3cccnc23)C1 (centres unmarked) [Example 112, 4-methoxy-3-(1-(pyrazolo[1,5-a]pyrimidin-3-yl)pyrrolidin-3-yl)-N-(5-(trifluoromethyl)pyridin-3-yl)benzamide] | 5 to 25 nM | < 5 nM
O=C(Nc1cncc(C(F)(F)F)c1)c1ccc(OC(F)F)c(C2CCN(c3cncnc3)C2)c1 (centres unmarked) [Example 113, 4-(difluoromethoxy)-3-(1-(pyrimidin-5-yl)pyrrolidin-3-yl)-N-(5-(trifluoromethyl)pyridin-3-yl)benzamide] | < 5 nM | < 5 nM
O=C(Nc1cncc(C(F)(F)F)c1)c1ccc(C(F)F)c(C2CCN(c3cncnc3)C2)c1 (centres unmarked) [Example 120, 4-(difluoromethyl)-3-(1-(pyrimidin-5-yl)pyrrolidin-3-yl)-N-(5-(trifluoromethyl)pyridin-3-yl)benzamide] | 25 to 100 nM | 5 to 25 nM
Cc1ccc(C(=O)c2cncc(C(F)(F)F)c2)cc1[C@@H]1CCN(c2cnc3ccc(CO)cn23)C1 [Example 123, (S)-(3-(1-(6-(hydroxymethyl)imidazo[1,2-a]pyridin-3-yl)pyrrolidin-3-yl)-4-methylphenyl)(5-(trifluoromethyl)pyridin-3-yl)methanone] | < 5 nM | < 5 nM
Cn1nc(NC(=O)c2ccc(C(F)F)c(C3CCN(c4cncnc4)C3)c2)cc1C(C)(C)C (centres unmarked) [Example 124, N-(5-(tert-butyl)-1-methyl-1H-pyrazol-3-yl)-4-(difluoromethyl)-3-(1-(pyrimidin-5-yl)pyrrolidin-3-yl)benzamide] | 5 to 25 nM | < 5 nM
Cc1ccc(C(=O)Nc2cncc(C(F)(F)F)c2)cc1[C@@H]1CCN(c2ncnc3cc(Br)sc23)C1 [Example 125, (S)-3-(1-(6-bromothieno[3,2-d]pyrimidin-4-yl)pyrrolidin-3-yl)-4-methyl-N-(5-(trifluoromethyl)pyridin-3-yl)benzamide] | 5 to 25 nM | 5 to 25 nM
